# Results from patent US7049133B2, “Regulation of gene expression through manipulation of mRNA splicing and its uses” (Yissum Research Development Company of the Hebrew …, priority 1998, dated 2006).
# Where two headings read alike, the source gives them in different places.
# T1: PKR (Oryctolagus cuniculus, UniProt A0A0U2KCE0)
# T1 construct: phosphorylation of the PKR (68 kDa) and eIF2α (38 kDa) bands in the ribosome fraction of rabbit reticulocyte lysate; from tissue; host or cells: ribosome fraction of rabbit reticulocyte lysate
# T1 sequence (A0A0U2KCE0 1-547): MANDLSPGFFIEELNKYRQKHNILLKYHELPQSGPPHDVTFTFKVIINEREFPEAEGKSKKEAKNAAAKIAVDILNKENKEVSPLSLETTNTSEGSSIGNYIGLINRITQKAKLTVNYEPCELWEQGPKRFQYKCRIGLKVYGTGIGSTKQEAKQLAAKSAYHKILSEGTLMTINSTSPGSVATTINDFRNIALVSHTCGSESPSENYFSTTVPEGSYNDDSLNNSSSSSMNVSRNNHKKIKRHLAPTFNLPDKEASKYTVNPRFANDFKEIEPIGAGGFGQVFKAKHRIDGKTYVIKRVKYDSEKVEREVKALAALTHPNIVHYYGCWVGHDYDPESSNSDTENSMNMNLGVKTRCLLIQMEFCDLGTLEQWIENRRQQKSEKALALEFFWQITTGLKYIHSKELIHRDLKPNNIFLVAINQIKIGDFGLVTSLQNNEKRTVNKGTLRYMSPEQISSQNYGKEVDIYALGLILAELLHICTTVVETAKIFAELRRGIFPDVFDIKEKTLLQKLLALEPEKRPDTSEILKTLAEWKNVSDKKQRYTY
# B1: 3′UTR-αEP RNA: T7 RNA transcript of the 104-bp EcoRI-PstI fragment of the human TNF-α3′-UTR (2-APRE, SEQ ID NO:1) (nucleic acid, listed as Homo sapiens)
# chain: GAATTCAAACTGGGGCCTCCAGAACTCACTGGGGCCTACAGCTTTGATCCCTGACATCTGGAATCTGGAGACCAGGGAGCCTTTGGTTCTGGCCAGAATGCTGC
# modifications: RNA, all phosphodiester, T or U not given here
# Legend:
# [1] = test system: primary human lymphoid cells; settings: cited from earlier work
# [2] = test system: CAT mRNA; assay: RNase protection analysis of CAT mRNA in transfected BHK-21 cells; type: cell-based
# Experimental: (§1) BHK-21 cells were grown in DMEM medium supplemented with 2 mM glutamine, 40 mM NaHCO3, 10 mM Hepes, pH 7.3, […] of penicillin and streptomycin, […] nystatin and 10% fetal calf serum. 2-AP (Sigma) was added at 10 mM unless otherwise indicated. To prepare a stock solution of 0.15 M, 2-AP was dissolved in phosphate-buffered saline by heating at 70° C. for 10 min.
# (§2) In the experiments of FIGS. 2 and 3, monolayers of BHK-21 cells were seeded at a density of 1−2×10^6 cells/8-cm Petri dish and grown overnight; 4 h before cotransfection, culture medium was replaced. A mixture of […] of test DNA construct and 4 mg salmon sperm DNA carrier, and, when included, 2 mg pSV2CAT DNA [47], was permeated into cells by the calcium phosphate-DNA coprecipitation technique. After 12–18 h, culture medium was replaced with fresh medium prewarmed to 37° C. In the experiments of FIGS. 6 and 7, LipofectAmine (Life Technologies) was employed following instructions of the supplier, using 1 mg of each DNA for transfection.
# For RNase protection analysis, DNA was subcloned in pBS (Stratagene) under the T3 or T7 promoter and transcribed using [a-^32P]UTP to generate labeled anti-sense RNA transcripts. A TNF-α RNA probe (map: FIG. 2A) was generated from a 821-bp EcoRI-Sau3AI fragment containing the 5′-flank, 151 -bp 5′-UTR, and first 6 codons. A second TNF-α RNA probe was generated from a 823-bp EcoRI-EcoRI 3′-UTR fragment from which a 5′-terminal fragment was removed by BstEII digestion, leaving 83 3′-terminal bp of the 3′-UTR and 250 bp beyond the 3′ cleavage site (map: FIG. 2A). A third TNF-α RNA probe (map: FIG. 2B) was generated from a 700-bp Sau3AI-Sau3AI fragment consisting of 10 bp of intron 2, exon 3, intron 3 and part of exon 4. A TNF-β probe was generated from a 637-bp Bsu36I-EcoRI DNA fragment, containing part of intron 3 and 571 bp of exon 4 (map: FIG. 3A). […] A probe of 250-nt, generated from a HindIII-EcoRI fragment of the coding region of the CAT gene, was used to quantitate CAT mRNA. Intactness of RNA probes was assessed by polyacrylamide gel electrophoresis. […]
# [3] = biological target: T1, PKR; assay: Phosphorylation of PKR and eIF2α in ribosome fraction from rabbit reticulocyte lysate; type: biochemical
# Text: A 823-bp EcoRI-EcoRI TNF-α gene fragment comprised of 573 3′-terminal bp of the 3′-UTR, the polyadenylation site and downstream sequences from pTNF-α was inserted into pBS under the T7 promoter. To obtain 3′-UTR sense transcripts, the DNA was digested with PstI (EP), NcoI (EN), AflIII (EA), SspI (ES) or XmnI (EX) and then transcribed in vitro. A 616-bp NcoI-EcoRI TNF-α gene fragment comprised of 366 3′-terminal bp of the 3′-UTR, the polyadenylation site and downstream sequences from pTNF-α was inserted into pBS under the T7 promoter. To obtain 3′-UTR sense transcripts, the DNA was digested with AflIII (NA) or XmnI (NX) and then transcribed in vitro. A 572-bp EcoRI-PstI TNF-β gene fragment comprised of 389 3′-terminal bp of the 3′-UTR, the polyadenylation site and downstream sequences from pTNF-β was inserted into pBS under the T7 promoter. To obtain 3′-UTR sense transcript, the DNA was digested with PstI and then transcribed in vitro. EP RNA transcript was purified by agarose gel electrophoresis, followed by chromatography on CF-11 cellulose, washing with ethanol and eluting with water as described. Phosphorylation of PKR and eIF2α chain was assayed by incubating polyI:polyC or 3′-UTR transcript with the ribosome fraction from rabbit reticulocyte lysate in the presence of [γ-^32P]ATP for 20 min at 30° C. as described and subjecting the reaction mixture to electrophoresis in 10% polyacryamide gels containing sodium dodecyl sulfate.
# [4] = test system: splicing of TNF-α precursor transcripts; assay: RNase protection analysis of TNF-α precursor transcripts and spliced mRNA in transfected BHK-21 cells; type: cell-based, hamster
# Experimental: as §1, §2
# (§3) For RNase protection analysis, DNA was subcloned in pBS (Stratagene) under the T3 or T7 promoter and transcribed using [a-^32P]UTP to generate labeled anti-sense RNA transcripts. A TNF-α RNA probe (map: FIG. 2A) was generated from a 821-bp EcoRI-Sau3AI fragment containing the 5′-flank, 151 -bp 5′-UTR, and first 6 codons. A second TNF-α RNA probe was generated from a 823-bp EcoRI-EcoRI 3′-UTR fragment from which a 5′-terminal fragment was removed by BstEII digestion, leaving 83 3′-terminal bp of the 3′-UTR and 250 bp beyond the 3′ cleavage site (map: FIG. 2A). A third TNF-α RNA probe (map: FIG. 2B) was generated from a 700-bp Sau3AI-Sau3AI fragment consisting of 10 bp of intron 2, exon 3, intron 3 and part of exon 4. A TNF-β probe was generated from a 637-bp Bsu36I-EcoRI DNA fragment, containing part of intron 3 and 571 bp of exon 4 (map: FIG. 3A). A second TNF-β RNA probe (map: FIG. 3B) was generated from a 324-bp EcoRI-Bsu36I DNA fragment, containing part of exon 1, exon 2, exon 3 and a portion of intron 3. A probe of 250-nt, generated from a HindIII-EcoRI fragment of the coding region of the CAT gene, was used to quantitate CAT mRNA. Intactness of RNA probes was assessed by polyacrylamide gel electrophoresis.
# (§4) Total RNA was isolated using guanidinium isothiocyanate/CsC1. RNase protection analysis with RNases A and T1 was performed using genomic TNF-α and TNF-β riboprobes and CAT or actin probes as described. Protected RNA fragments were separated by electrophoresis in 5% polyacrylamide/8 M urea gels. Size markers in FIG. 3 were generated by MspI digestion of pGEM-3 DNA and filling in with [a-^32P]dCTP [12]. Size marker in FIG. 7 is a 100-bp DNA ladder (Fermentas) that was dephosphorylated and 5′ end-labeled with [γ-^32P]ATP.
# [5] = test system: BHK-21 cells; type: cell-based, baby hamster
# Experimental: as §1, §2
# [6] = test system: splicing of TNF-β precursor transcripts; assay: RNase protection analysis of TNF-β precursor transcripts and spliced RNA in transfected BHK-21 cells; type: cell-based, hamster
# Experimental: as §1, §2, §3, §4
# [7] = pTNF-α(3′UTR-β), 2-AP from 16 h
# [8] = pTNF-α, 2-AP 10 mM from 18 h after transfection
# [9] = pTNF-β(3′UTR-α), 2-AP in presence of CHX
# [10] = pTNF-β(3′UTR-α), intron 3/exon 4 probe, 2-AP from 16 h
molecule,measurement,setting,value
"Nc1ncc2[nH]cnc2n1 [2-AP, 2-Aminopurine]",TNF-β precursor transcripts and spliced mRNA,"[1]; lymphoid cells, increasing doses",coordinate decline
same,Expression of TNF-α mRNA,[1]; primary human lymphoid cells,blocks expression
same,Expression of CAT mRNA carrying TNF-α3′-UTR portion,[2]; p5′CAT(3′UTR-α),unaffected
same,Expression of CAT mRNA,"[2]; p5′CAT, 10 mM 2-AP",proceeded unabated
same,Expression of a cotransfected CAT gene,"[2]; pSV2CAT cotransfected with pTNF-α, 2-AP 10 mM",not affected
same,"Sensitivity of PKR activation by 3′UTR-αEP RNA to 2-AP, compared with activation by dsRNA",[3]; 1 mM 2-AP,less sensitive
same,Phosphorylation of PKR and eIF2α driven by purified 3′UTR-αEP RNA,[3]; 1 and 5 mM of 2-AP,inhibited progressively
same,mRNA,"[4]; pTNF-α(3′UTR-αEP), 2-AP added at 20 h",decline
same,Rise in precursor transcripts,"[4]; pTNF-α(3′UTR-αEP), 2-AP added at 20 h, at 53 h",up to 36 fold
same,Expression of spliced mRNA (341-nt band),[4]; [7],failed to decline
same,Precursor transcripts (700 nt),[4]; [7],nor did precursor transcripts (700 nt) increase
same,Accumulation of precursor transcripts,"[4]; pTNF-α(Δ3′UTR), 2-AP 10 mM",nor was there any enhanced accumulation
same,Expression of mRNA,"[4]; pTNF-α(Δ3′UTR), 2-AP 10 mM",no longer inhibited
same,Expression of TNF-α RNA transcripts,"[4]; pTNF-α, 2-AP 2 mM from time of transfection",reduction
same,Expression of TNF-α RNA transcripts,"[4]; pTNF-α, 2-AP 6 mM from time of transfection",full inhibition
same,Expression of spliced TNF-α mRNA (341-nt band),[4]; [8],strongly inhibited
same,TNF-α precursor transcripts (700-nt band),[4]; [8],enhanced accumulation
same,Cell viability,"[5]; FIG. 2 experiments, 2-AP up to 10 mM",remained constant
same,Cell viability,"[5]; FIG. 3 experiments, 2-AP and CHX present",remained constant
same,"Sensitivity of splicing of TNF-β precursor transcripts carrying an inverted TNF-α3′-UTR sequence, compared with TNF-β(3′UTR-α) transcripts",[6],as sensitive
same,Generation of spliced RNA,[6]; [9],inhibited
same,Precursor transcripts,[6]; [9],increased
same,Precursor transcripts,[6]; [10],strong increase
same,Spliced RNA,[6]; [10],concomitant decline
same,Spliced mRNA versus precursor transcripts,"[6]; pTNF-β(3′UTR-αEP), 2-AP added at 20 h",pronounced shift from spliced mRNA to precursor transcripts
same,Expression of spliced TNF-β RNA,[6]; pTNF-β(Δ3′UTR),insensitive
same,Spliced RNA (214-nt band) and precursor transcripts,"[6]; pTNF-β, exon 1-3/intron 3 probe, 2-AP from 12 h",decrease
same,TNF-β precursor transcripts (637 nt) and mRNA (571 nt),"[6]; pTNF-β, intron 3/exon 4 probe, 2-AP from 12 h",precursors and mRNA both declined
C[C@@H]1C[C@@H]([C@H](O)CC2CC(=O)NC(=O)C2)C(=O)[C@@H](C)C1 [CHX],Expression of both precursor transcripts and spliced RNA,"[6]; pTNF-β(3′UTR-α), CHX from 16 h",enhanced expression
B1,"Induced phosphorylation of PKR and eIF2α, dependence on RNA concentration",[3],at low but not high RNA concentrations
same,"Activation of PKR, judged by phosphorylation of PKR (68 kDa) and eIF2α (38 kDa) bands","[3]; RNA 0.05 ng/ml, compared with dsRNA",activated PKR even more strongly than dsRNA
same,Molar specific activity as inducer of PKR phosphorylation,[3]; each TNF RNA at 0.05 ng/ml,highest molar specific activity
